Laboratory results published in paper PMC12155096 (International Journal of Molecular Sciences, 2025).
Counter-ions that a name gives are not always drawn.

The compounds below were run against Photinus pyralis (firefly) luciferase (Photinus pyralis, UniProt P08659) (assay: biochemical). Details: not given.
Photinus pyralis (firefly) luciferase, sequence (P08659 whole entry): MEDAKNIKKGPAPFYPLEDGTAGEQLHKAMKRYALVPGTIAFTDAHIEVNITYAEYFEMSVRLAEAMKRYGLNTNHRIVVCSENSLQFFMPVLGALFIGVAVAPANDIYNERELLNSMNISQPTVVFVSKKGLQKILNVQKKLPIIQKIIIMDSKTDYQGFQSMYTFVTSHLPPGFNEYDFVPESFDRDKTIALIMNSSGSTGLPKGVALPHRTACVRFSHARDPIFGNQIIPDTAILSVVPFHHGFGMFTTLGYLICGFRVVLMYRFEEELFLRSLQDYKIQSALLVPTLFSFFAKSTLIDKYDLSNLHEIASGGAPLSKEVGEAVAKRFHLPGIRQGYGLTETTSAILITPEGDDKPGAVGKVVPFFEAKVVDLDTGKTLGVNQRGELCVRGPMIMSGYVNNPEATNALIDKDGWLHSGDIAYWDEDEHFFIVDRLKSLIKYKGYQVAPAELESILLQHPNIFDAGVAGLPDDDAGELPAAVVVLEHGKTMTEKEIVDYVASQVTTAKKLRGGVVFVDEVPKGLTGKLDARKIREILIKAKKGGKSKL
Format: biochemical
In the case of `O=[N+]([O-])c1ccc2ccc3cccc4ccc1c2c34` [1-Nitropyrene], the “Luciferase IC50 (half-maximal inhibitory concentration)” value is reported as “Inactive”. For `OC(c1ccc(Cl)cc1)(c1ccc(Cl)cc1)C(Cl)(Cl)Cl` [Dicofol], the “Luciferase IC50 (half-maximal inhibitory concentration)” value was “Inactive”. For `CCn1ccnc1CC1COc2ccccc2O1` (stereo not shown) [Imiloxan], the “Luciferase IC50 (half-maximal inhibitory concentration)” value was “Inactive”. In the case of `CCCC(Cn1cncn1)c1ccc(Cl)cc1Cl` (stereo not shown) [Penconazole], the “Luciferase IC50 (half-maximal inhibitory concentration)” value is reported as “Inactive”. For `COc1ccc(CN(CCN(C)C)c2ccccn2)cc1` [Pyrilamine maleate], the “Luciferase IC50 (half-maximal inhibitory concentration)” value was “Inactive”. `Fc1ccc(Oc2ccnc3cc(Cl)cc(Cl)c23)cc1` [Quinoxyfen] gave an IC50 of 59.2 µM. For `O=S(=O)(c1ccc(Cl)cc1)c1cc(Cl)c(Cl)cc1Cl` [Tetradifon], the “Luciferase IC50 (half-maximal inhibitory concentration)” value was “Inactive”. `COc1ccc(CN(CCN(C)C)c2ncccn2)cc1` [Thonzylamine hydrochloride] was tested, and the “Luciferase IC50 (half-maximal inhibitory concentration)” value was “Inactive”. With `CN(C)CCCN1c2ccccc2Sc2ccc(C(F)(F)F)cc21` [Triflupromazine hydrochloride] the “Luciferase IC50 (half-maximal inhibitory concentration)” value was “Inactive”. For `CN(C)CCN(Cc1ccccc1)c1ccccn1` [Tripelennamine citrate], the “Luciferase IC50 (half-maximal inhibitory concentration)” value was “Inactive”.

What follows are compounds tested against T1, human CYP1A2 (Homo sapiens, UniProt P05177) (assay: not given). Details: human.
T1 sequence (P05177 1-516): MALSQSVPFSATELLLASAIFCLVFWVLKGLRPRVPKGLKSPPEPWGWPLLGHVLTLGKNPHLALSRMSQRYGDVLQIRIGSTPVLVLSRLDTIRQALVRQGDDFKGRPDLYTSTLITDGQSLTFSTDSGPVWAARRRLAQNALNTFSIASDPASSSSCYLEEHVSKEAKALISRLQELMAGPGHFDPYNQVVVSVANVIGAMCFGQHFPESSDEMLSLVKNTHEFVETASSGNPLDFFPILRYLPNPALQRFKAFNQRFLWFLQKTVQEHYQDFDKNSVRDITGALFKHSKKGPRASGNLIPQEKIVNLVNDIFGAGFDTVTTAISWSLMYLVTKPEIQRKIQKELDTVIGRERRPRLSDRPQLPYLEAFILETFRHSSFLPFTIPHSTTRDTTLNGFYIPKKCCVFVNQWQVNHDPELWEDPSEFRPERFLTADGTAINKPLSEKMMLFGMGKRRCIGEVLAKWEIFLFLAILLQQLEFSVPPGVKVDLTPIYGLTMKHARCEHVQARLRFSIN
With `O=[N+]([O-])c1ccc2ccc3cccc4ccc1c2c34` [1-Nitropyrene] the “CYP1A2 Efficacy (in parenthesis)” value was 0.27 ± 0.05 (-96 ± 5) %. With `OC(c1ccc(Cl)cc1)(c1ccc(Cl)cc1)C(Cl)(Cl)Cl` [Dicofol] the “CYP1A2 Efficacy (in parenthesis)” value was 8.5 ± 4.94 (-106 ± 9) %. `CCCC(Cn1cncn1)c1ccc(Cl)cc1Cl` (stereo not shown) [Penconazole] was tested, and the “CYP1A2 Efficacy (in parenthesis)” value was 23.57 ± 4.24 (-101 ± 7) %. `Fc1ccc(Oc2ccnc3cc(Cl)cc(Cl)c23)cc1` [Quinoxyfen] was tested, and the “CYP1A2 Efficacy (in parenthesis)” value was 0.53 ± 0.32 (-98 ± 2) %. `O=S(=O)(c1ccc(Cl)cc1)c1cc(Cl)c(Cl)cc1Cl` [Tetradifon] was tested, and the “CYP1A2 Efficacy (in parenthesis)” value was 31.85 ± 3.66 (-38 ± 3) %.

Each compound was assayed against T2, human CYP2C9 (Homo sapiens, UniProt P11712) (assay: not given). Details: not given.
T2 sequence (P11712 whole entry): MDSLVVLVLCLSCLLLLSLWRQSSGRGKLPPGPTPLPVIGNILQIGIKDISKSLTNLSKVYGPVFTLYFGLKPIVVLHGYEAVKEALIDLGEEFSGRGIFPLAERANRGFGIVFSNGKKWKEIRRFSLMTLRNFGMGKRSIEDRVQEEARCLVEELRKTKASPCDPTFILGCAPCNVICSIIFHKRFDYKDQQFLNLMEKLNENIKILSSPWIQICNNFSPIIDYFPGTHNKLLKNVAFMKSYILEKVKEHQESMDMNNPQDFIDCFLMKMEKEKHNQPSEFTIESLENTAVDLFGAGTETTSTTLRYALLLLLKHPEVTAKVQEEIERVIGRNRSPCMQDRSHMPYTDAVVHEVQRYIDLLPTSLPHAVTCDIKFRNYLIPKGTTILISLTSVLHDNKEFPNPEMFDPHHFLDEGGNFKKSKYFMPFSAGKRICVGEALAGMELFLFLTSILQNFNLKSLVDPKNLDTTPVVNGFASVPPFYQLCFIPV
For `O=[N+]([O-])c1ccc2ccc3cccc4ccc1c2c34` [1-Nitropyrene], the “CYP2C9 IC50 (half-maximal inhibitory concentration)” value was “Inactive”. With `CCn1ccnc1CC1COc2ccccc2O1` (stereo not shown) [Imiloxan] the “CYP2C9 IC50 (half-maximal inhibitory concentration)” value was “Inactive”. For `COc1ccc(CN(CCN(C)C)c2ccccn2)cc1` [Pyrilamine maleate], the “CYP2C9 IC50 (half-maximal inhibitory concentration)” value was “Inactive”. With `COc1ccc(CN(CCN(C)C)c2ncccn2)cc1` [Thonzylamine hydrochloride] the “CYP2C9 IC50 (half-maximal inhibitory concentration)” value was “Inactive”. With `CN(C)CCCN1c2ccccc2Sc2ccc(C(F)(F)F)cc21` [Triflupromazine hydrochloride] the “CYP2C9 IC50 (half-maximal inhibitory concentration)” value was “Inactive”. For `CN(C)CCN(Cc1ccccc1)c1ccccn1` [Tripelennamine citrate], the “CYP2C9 IC50 (half-maximal inhibitory concentration)” value was “Inactive”.

Same assay, conditions: human
In the case of `OC(c1ccc(Cl)cc1)(c1ccc(Cl)cc1)C(Cl)(Cl)Cl` [Dicofol], the “CYP2C9 Efficacy (in parenthesis)” value is reported as 4.89 ± 4.11 (-104 ± 9) %. `CCCC(Cn1cncn1)c1ccc(Cl)cc1Cl` (stereo not shown) [Penconazole] was tested, and the “CYP2C9 Efficacy (in parenthesis)” value was 5.66 ± 0.65 (-101 ± 4) %. `Fc1ccc(Oc2ccnc3cc(Cl)cc(Cl)c23)cc1` [Quinoxyfen] was tested, and the “CYP2C9 Efficacy (in parenthesis)” value was 23.18 ± 7.46 (-103 ± 2) %. In the case of `O=S(=O)(c1ccc(Cl)cc1)c1cc(Cl)c(Cl)cc1Cl` [Tetradifon], the “CYP2C9 Efficacy (in parenthesis)” value is reported as 28.26 ± 0 (-59 ± 2) %.

What follows are compounds tested against T3, human CYP2C19 (Homo sapiens, UniProt P33261) (assay: not given). Details: human.
T3 sequence (P33261 whole entry): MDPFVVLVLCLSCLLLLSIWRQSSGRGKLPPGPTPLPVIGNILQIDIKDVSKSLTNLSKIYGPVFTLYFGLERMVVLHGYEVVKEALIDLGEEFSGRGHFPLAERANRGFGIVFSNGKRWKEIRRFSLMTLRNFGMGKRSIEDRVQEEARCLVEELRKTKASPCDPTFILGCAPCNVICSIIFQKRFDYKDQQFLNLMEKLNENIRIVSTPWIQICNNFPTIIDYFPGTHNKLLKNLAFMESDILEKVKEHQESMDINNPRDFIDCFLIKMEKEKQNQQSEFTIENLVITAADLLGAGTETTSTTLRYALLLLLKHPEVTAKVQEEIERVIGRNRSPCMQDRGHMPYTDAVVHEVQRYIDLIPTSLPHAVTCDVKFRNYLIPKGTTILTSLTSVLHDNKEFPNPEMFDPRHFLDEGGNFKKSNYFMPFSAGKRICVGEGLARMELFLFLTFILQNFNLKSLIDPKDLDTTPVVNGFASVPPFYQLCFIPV
`O=[N+]([O-])c1ccc2ccc3cccc4ccc1c2c34` [1-Nitropyrene] was tested, and the “CYP2C19 Efficacy (in parenthesis)” value was 14.04 ± 11.88 (-69 ± 19) %. For `OC(c1ccc(Cl)cc1)(c1ccc(Cl)cc1)C(Cl)(Cl)Cl` [Dicofol], the “CYP2C19 Efficacy (in parenthesis)” value was 0.29 ± 0.44 (-153 ± 1) %. For `CCCC(Cn1cncn1)c1ccc(Cl)cc1Cl` (stereo not shown) [Penconazole], the “CYP2C19 Efficacy (in parenthesis)” value was 0.14 ± 0.02 (-137 ± 5) %. In the case of `Fc1ccc(Oc2ccnc3cc(Cl)cc(Cl)c23)cc1` [Quinoxyfen], the “CYP2C19 Efficacy (in parenthesis)” value is reported as 13.35 ± 5.76 (-134 ± 20) %. In the case of `O=S(=O)(c1ccc(Cl)cc1)c1cc(Cl)c(Cl)cc1Cl` [Tetradifon], the “CYP2C19 Efficacy (in parenthesis)” value is reported as 0.27 ± 0.02 (-131 ± 10) %.

Each compound was assayed against T4, human CYP2D6 (Homo sapiens, UniProt P10635) (assay: not given). Details: human.
T4 sequence (P10635 whole entry): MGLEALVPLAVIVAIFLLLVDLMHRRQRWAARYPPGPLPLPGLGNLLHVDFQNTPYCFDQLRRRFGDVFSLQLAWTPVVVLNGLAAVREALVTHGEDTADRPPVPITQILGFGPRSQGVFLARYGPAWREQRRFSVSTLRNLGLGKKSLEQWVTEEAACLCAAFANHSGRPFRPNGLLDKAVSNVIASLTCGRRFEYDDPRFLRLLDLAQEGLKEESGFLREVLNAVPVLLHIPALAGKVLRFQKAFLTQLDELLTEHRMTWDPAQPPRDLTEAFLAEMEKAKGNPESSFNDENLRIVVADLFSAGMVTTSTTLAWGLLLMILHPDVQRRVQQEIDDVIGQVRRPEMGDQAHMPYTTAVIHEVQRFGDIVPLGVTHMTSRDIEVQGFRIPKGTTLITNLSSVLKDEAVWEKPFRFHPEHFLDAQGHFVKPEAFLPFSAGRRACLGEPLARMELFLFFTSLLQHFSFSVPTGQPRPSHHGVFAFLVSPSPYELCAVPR
`O=[N+]([O-])c1ccc2ccc3cccc4ccc1c2c34` [1-Nitropyrene] was tested, and the “CYP2D6 Efficacy (in parenthesis)” value was 33 ± 2.23 (-91 ± 22) %. For `OC(c1ccc(Cl)cc1)(c1ccc(Cl)cc1)C(Cl)(Cl)Cl` [Dicofol], the “CYP2D6 Efficacy (in parenthesis)” value was 44.8 ± 22.68 (-69 ± 14) %. In the case of `CCCC(Cn1cncn1)c1ccc(Cl)cc1Cl` (stereo not shown) [Penconazole], the “CYP2D6 Efficacy (in parenthesis)” value is reported as 43.51 ± 17.21 (-88 ± 16) %. In the case of `Fc1ccc(Oc2ccnc3cc(Cl)cc(Cl)c23)cc1` [Quinoxyfen], the “CYP2D6 Efficacy (in parenthesis)” value is reported as 37.02 ± 2.51 (-71 ± 14) %. With `O=S(=O)(c1ccc(Cl)cc1)c1cc(Cl)c(Cl)cc1Cl` [Tetradifon] the “CYP2D6 Efficacy (in parenthesis)” value was 49.42 ± 19.58 (-34 ± 2) %.

The compounds below were run against CYP3A4 (Homo sapiens, UniProt P08684) (assay: not given). Details: not given.
CYP3A4, sequence (P08684 whole entry): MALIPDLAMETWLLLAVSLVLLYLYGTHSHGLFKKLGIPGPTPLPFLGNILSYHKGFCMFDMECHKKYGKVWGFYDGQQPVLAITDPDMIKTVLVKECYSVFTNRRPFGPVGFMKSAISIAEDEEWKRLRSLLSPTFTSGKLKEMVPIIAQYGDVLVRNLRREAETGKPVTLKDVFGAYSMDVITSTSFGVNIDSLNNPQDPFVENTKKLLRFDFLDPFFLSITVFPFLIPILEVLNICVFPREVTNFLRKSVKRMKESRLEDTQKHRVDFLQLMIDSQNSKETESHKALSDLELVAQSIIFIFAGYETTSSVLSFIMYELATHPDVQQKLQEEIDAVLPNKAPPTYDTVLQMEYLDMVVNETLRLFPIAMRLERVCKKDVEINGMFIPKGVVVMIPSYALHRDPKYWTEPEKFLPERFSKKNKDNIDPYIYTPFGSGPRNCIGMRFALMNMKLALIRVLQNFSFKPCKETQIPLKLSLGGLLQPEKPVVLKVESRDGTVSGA
For `O=[N+]([O-])c1ccc2ccc3cccc4ccc1c2c34` [1-Nitropyrene], the “CYP3A4 IC50 (half-maximal inhibitory concentration)” value was “Inactive”. In the case of `OC(c1ccc(Cl)cc1)(c1ccc(Cl)cc1)C(Cl)(Cl)Cl` [Dicofol], the “CYP3A4 IC50 (half-maximal inhibitory concentration)” value is reported as “Inactive”. With `CCn1ccnc1CC1COc2ccccc2O1` (stereo not shown) [Imiloxan] the “CYP3A4 IC50 (half-maximal inhibitory concentration)” value was “Inactive”. With `CCCC(Cn1cncn1)c1ccc(Cl)cc1Cl` (stereo not shown) [Penconazole] the “CYP3A4 IC50 (half-maximal inhibitory concentration)” value was “Inactive”. With `COc1ccc(CN(CCN(C)C)c2ccccn2)cc1` [Pyrilamine maleate] the “CYP3A4 IC50 (half-maximal inhibitory concentration)” value was “Inactive”. For `Fc1ccc(Oc2ccnc3cc(Cl)cc(Cl)c23)cc1` [Quinoxyfen], the “CYP3A4 IC50 (half-maximal inhibitory concentration)” value was “Inactive”. With `O=S(=O)(c1ccc(Cl)cc1)c1cc(Cl)c(Cl)cc1Cl` [Tetradifon] the “CYP3A4 IC50 (half-maximal inhibitory concentration)” value was “Inactive”. With `COc1ccc(CN(CCN(C)C)c2ncccn2)cc1` [Thonzylamine hydrochloride] the “CYP3A4 IC50 (half-maximal inhibitory concentration)” value was “Inactive”. `CN(C)CCCN1c2ccccc2Sc2ccc(C(F)(F)F)cc21` [Triflupromazine hydrochloride] was tested, and the “CYP3A4 IC50 (half-maximal inhibitory concentration)” value was “Inactive”. With `CN(C)CCN(Cc1ccccc1)c1ccccn1` [Tripelennamine citrate] the “CYP3A4 IC50 (half-maximal inhibitory concentration)” value was “Inactive”.

What follows are compounds tested against T1, human CYP1A2 (assay: biochemical). Details: CYP1A2 IC50 (half-maximal inhibitory concentration).
Compound `O=[N+]([O-])c1ccc2ccc3cccc4ccc1c2c34` [1-Nitropyrene] has an IC50 of 0.27 µM. Work on `OC(c1ccc(Cl)cc1)(c1ccc(Cl)cc1)C(Cl)(Cl)Cl` [Dicofol] yielded an IC50 of 8.5 µM. `CCn1ccnc1CC1COc2ccccc2O1` (stereo not shown) [Imiloxan] gave an IC50 of 25.3 µM. Work on `CCCC(Cn1cncn1)c1ccc(Cl)cc1Cl` (stereo not shown) [Penconazole] yielded an IC50 of 23.6 µM. Compound `COc1ccc(CN(CCN(C)C)c2ccccn2)cc1` [Pyrilamine maleate] has an IC50 of 62.7 µM. `Fc1ccc(Oc2ccnc3cc(Cl)cc(Cl)c23)cc1` [Quinoxyfen] showed an IC50 of 0.53 µM. For `O=S(=O)(c1ccc(Cl)cc1)c1cc(Cl)c(Cl)cc1Cl` [Tetradifon], the IC50 was 31.9 µM. `COc1ccc(CN(CCN(C)C)c2ncccn2)cc1` [Thonzylamine hydrochloride] gave an IC50 of 18.5 µM. `CN(C)CCCN1c2ccccc2Sc2ccc(C(F)(F)F)cc21` [Triflupromazine hydrochloride] showed an IC50 of 3.52 µM. `CN(C)CCN(Cc1ccccc1)c1ccccn1` [Tripelennamine citrate] showed an IC50 of 26.5 µM.

Each compound was assayed against T2, human CYP2C9 (assay: biochemical). Details: CYP2C9 IC50 (half-maximal inhibitory concentration).
Compound `OC(c1ccc(Cl)cc1)(c1ccc(Cl)cc1)C(Cl)(Cl)Cl` [Dicofol] has an IC50 of 4.89 µM. Compound `CCCC(Cn1cncn1)c1ccc(Cl)cc1Cl` (stereo not shown) [Penconazole] has an IC50 of 5.66 µM. `Fc1ccc(Oc2ccnc3cc(Cl)cc(Cl)c23)cc1` [Quinoxyfen] was tested, and the IC50 was 23.2 µM. `O=S(=O)(c1ccc(Cl)cc1)c1cc(Cl)c(Cl)cc1Cl` [Tetradifon] was tested, and the IC50 was 28.3 µM.

These compounds were tested against T3, human CYP2C19 (assay: biochemical). Details: CYP2C19 IC50 (half-maximal inhibitory concentration).
`O=[N+]([O-])c1ccc2ccc3cccc4ccc1c2c34` [1-Nitropyrene] showed an IC50 of 14 µM. With `OC(c1ccc(Cl)cc1)(c1ccc(Cl)cc1)C(Cl)(Cl)Cl` [Dicofol] the IC50 was 0.29 µM. `CCn1ccnc1CC1COc2ccccc2O1` (stereo not shown) [Imiloxan] showed an IC50 of 4.42 µM. Work on `CCCC(Cn1cncn1)c1ccc(Cl)cc1Cl` (stereo not shown) [Penconazole] yielded an IC50 of 0.14 µM. Work on `COc1ccc(CN(CCN(C)C)c2ccccn2)cc1` [Pyrilamine maleate] yielded an IC50 of 15.8 µM. Compound `Fc1ccc(Oc2ccnc3cc(Cl)cc(Cl)c23)cc1` [Quinoxyfen] has an IC50 of 13.3 µM. With `O=S(=O)(c1ccc(Cl)cc1)c1cc(Cl)c(Cl)cc1Cl` [Tetradifon] the IC50 was 0.27 µM. `COc1ccc(CN(CCN(C)C)c2ncccn2)cc1` [Thonzylamine hydrochloride] was tested, and the IC50 was 15.7 µM. In the case of `CN(C)CCCN1c2ccccc2Sc2ccc(C(F)(F)F)cc21` [Triflupromazine hydrochloride], the IC50 is reported as 7.62 µM. For `CN(C)CCN(Cc1ccccc1)c1ccccn1` [Tripelennamine citrate], the IC50 was 35.7 µM.

These compounds were tested against T4, human CYP2D6 (assay: biochemical). Details: CYP2D6 IC50 (half-maximal inhibitory concentration).
`O=[N+]([O-])c1ccc2ccc3cccc4ccc1c2c34` [1-Nitropyrene] gave an IC50 of 33 µM. For `OC(c1ccc(Cl)cc1)(c1ccc(Cl)cc1)C(Cl)(Cl)Cl` [Dicofol], the IC50 was 44.8 µM. `CCn1ccnc1CC1COc2ccccc2O1` (stereo not shown) [Imiloxan] showed an IC50 of 0.69 µM. In the case of `CCCC(Cn1cncn1)c1ccc(Cl)cc1Cl` (stereo not shown) [Penconazole], the IC50 is reported as 43.5 µM. `COc1ccc(CN(CCN(C)C)c2ccccn2)cc1` [Pyrilamine maleate] showed an IC50 of 0.18 µM. With `Fc1ccc(Oc2ccnc3cc(Cl)cc(Cl)c23)cc1` [Quinoxyfen] the IC50 was 37 µM. `O=S(=O)(c1ccc(Cl)cc1)c1cc(Cl)c(Cl)cc1Cl` [Tetradifon] showed an IC50 of 49.4 µM. Compound `COc1ccc(CN(CCN(C)C)c2ncccn2)cc1` [Thonzylamine hydrochloride] has an IC50 of 0.7 µM. `CN(C)CCCN1c2ccccc2Sc2ccc(C(F)(F)F)cc21` [Triflupromazine hydrochloride] was tested, and the IC50 was 0.55 µM. `CN(C)CCN(Cc1ccccc1)c1ccccn1` [Tripelennamine citrate] showed an IC50 of 0.2 µM.
